Test results reported in ChEMBL document CHEMBL2440076, “New triarylpyrazoles as broad-spectrum anticancer agents: design, synthesis, and biological evaluation” (Eur J Med Chem, 2013).

Assays:
HL-60(TB) = test: Growth inhibition of human HL-60(TB) cells assessed as cell growth at 10 uM after 48 hrs by sulforhodamine B assay; type: functional; conditions: HL-60, 48 h, read-out: Activity
UACC-257 = test: Growth inhibition of human UACC257 cells assessed as cell growth at 10 uM after 48 hrs by sulforhodamine B assay; type: functional; conditions: UACC-257, 48 h, read-out: Activity
RXF 393 = test: Growth inhibition of human RXF393 cells assessed as cell growth at 10 uM after 48 hrs by sulforhodamine B assay; type: functional; conditions: RXF 393, 48 h, read-out: Activity
[1] = Growth inhibition of human NCI-ADR-RES cells assessed as cell growth at 10 uM after 48 hrs by sulforhodamine B assay; type: functional; conditions: read-out: Activity
[2] = Growth inhibition of human HCC2998 cells assessed as cell growth at 10 uM after 48 hrs by sulforhodamine B assay; type: functional; conditions: HCC 2998, 48 h, read-out: Activity
HOP-92 = test: Growth inhibition of human HOP92 cells after 48 hrs by sulforhodamine B assay; type: functional, cell-based; conditions: HOP-92, 48 h
Malme-3M = test: Growth inhibition of human MALME-3M cells after 48 hrs by sulforhodamine B assay; type: functional
NCI-H460 [3] = test: Growth inhibition of human NCI-H460 cells assessed as cell growth at 10 uM after 48 hrs by sulforhodamine B assay; type: functional; conditions: NCI-H460, 48 h, read-out: Activity
HCT-116 [4] = test: Growth inhibition of human HCT116 cells assessed as cell growth at 10 uM after 48 hrs by sulforhodamine B assay; type: functional; conditions: HCT-116, 48 h, read-out: Activity
SF-268 = test: Growth inhibition of human SF268 cells after 48 hrs by sulforhodamine B assay; type: functional; conditions: SF-268, 48 h
DU-145 = test: Growth inhibition of human DU145 cells after 48 hrs by sulforhodamine B assay; type: functional; conditions: DU-145, 48 h
IGROV-1 = test: Growth inhibition of human IGROV1 cells assessed as cell growth at 10 uM after 48 hrs by sulforhodamine B assay; type: functional; conditions: IGROV-1, 48 h, read-out: Activity
NCI-H522 = test: Growth inhibition of human NCI-H522 cells assessed as cell growth at 10 uM after 48 hrs by sulforhodamine B assay; type: functional; conditions: NCI-H522, 48 h, read-out: Activity
PC-3 = test: Growth inhibition of human PC3 cells after 48 hrs by sulforhodamine B assay; type: functional, cell-based; conditions: PC-3, 48 h
COLO 205 = test: Growth inhibition of human COLO205 cells assessed as cell growth at 10 uM after 48 hrs by sulforhodamine B assay; type: functional; conditions: COLO 205, 48 h, read-out: Activity
[5] = Growth inhibition of human Hs 578T cells after 48 hrs by sulforhodamine B assay; type: functional
SK-OV-3 = test: Growth inhibition of human SKOV3 cells after 48 hrs by sulforhodamine B assay; type: functional; conditions: SK-OV-3, 48 h
MOLT-4 [6] = test: Growth inhibition of human MOLT4 cells after 48 hrs by sulforhodamine B assay; type: functional; conditions: MOLT-4, 48 h
A549 = test: Growth inhibition of human A549/ATCC cells after 48 hrs by sulforhodamine B assay; type: functional; conditions: A549, 48 h
SF-539 = test: Growth inhibition of human SF539 cells assessed as cell growth at 10 uM after 48 hrs by sulforhodamine B assay; type: functional; conditions: SF-539, 48 h, read-out: Activity
OVCAR-3 [7] = test: Growth inhibition of human OVCAR3 cells after 48 hrs by sulforhodamine B assay; type: functional, cell-based; conditions: OVCAR-3, 48 h
HCT-116 [8] = test: Growth inhibition of human HCT116 cells after 48 hrs by sulforhodamine B assay; type: functional; conditions: HCT-116, 48 h
NCI-H460 [9] = test: Growth inhibition of human NCI-H460 cells after 48 hrs by sulforhodamine B assay; type: functional; conditions: NCI-H460, 48 h
OVCAR-3 [10] = test: Growth inhibition of human OVCAR3 cells assessed as cell growth at 10 uM after 48 hrs by sulforhodamine B assay; type: functional; conditions: OVCAR-3, 48 h, read-out: Activity
NCI-H322M = test: Growth inhibition of human NCI-H322M cells after 48 hrs by sulforhodamine B assay; type: functional
NCI-H226 [11] = test: Growth inhibition of human NCI-H226 cells assessed as cell growth at 10 uM after 48 hrs by sulforhodamine B assay; type: functional; conditions: NCI-H226, 48 h, read-out: Activity
NCI-H226 [12] = test: Growth inhibition of human NCI-H226 cells after 48 hrs by sulforhodamine B assay; type: functional; conditions: NCI-H226, 48 h
CCRF-CEM = test: Growth inhibition of human CCRF-CEM cells assessed as cell growth at 10 uM after 48 hrs by sulforhodamine B assay; type: functional; conditions: read-out: Activity
LOX IMVI = test: Growth inhibition of human LOXIMVI cells assessed as cell growth at 10 uM after 48 hrs by sulforhodamine B assay; type: functional; conditions: read-out: Activity
HCT-15 = test: Growth inhibition of human HCT15 cells assessed as cell growth at 10 uM after 48 hrs by sulforhodamine B assay; type: functional; conditions: HCT-15, 48 h, read-out: Activity
MOLT-4 [13] = test: Growth inhibition of human MOLT4 cells assessed as cell growth at 10 uM after 48 hrs by sulforhodamine B assay; type: functional; conditions: MOLT-4, 48 h, read-out: Activity
[14] = Growth inhibition of human NCI-ADR-RES cells after 48 hrs by sulforhodamine B assay; type: functional
MCF7 = test: Growth inhibition of human MCF7 cells assessed as cell growth at 10 uM after 48 hrs by sulforhodamine B assay; type: functional; conditions: MCF7, 48 h, read-out: Activity
SN12C = test: Growth inhibition of human SN12C cells after 48 hrs by sulforhodamine B assay; type: functional
[15] = read-out: LC50 (the source's name)

O=C(Nc1cccc(-n2cc(-c3ccncc3)c(-c3ccc(Cl)c(O)c3)n2)c1)Nc1cccc(C(F)(F)F)c1
growth at 10 µM (HL-60(TB)): 12.5%
growth at 10 µM (UACC-257): -11.6%
growth at 10 µM (RXF 393): 31.3%
growth at 10 µM [1]: 24.9%
growth at 10 µM [2]: 40.1%
GI50 (HOP-92): 0.509 µM
IC50 (HOP-92): 0.51 µM
LC50 (HOP-92): > 32.5 µM
TGI (HOP-92): 2.23 µM
GI50 (Malme-3M): 1.81 µM
LC50 (concentration killing 50% of starting cells) (Malme-3M): > 32.5 µM
TGI (Malme-3M): 20.1 µM
growth at 10 µM (NCI-H460 [3]): 7.29%
growth at 10 µM (HCT-116 [4]): 9.75%
GI50 (SF-268): 1.95 µM
TGI (SF-268): 15.8 µM
CC50 (SF-268; [15]): > 32.5 µM
GI50 (DU-145): 1.76 µM
LC50 (DU-145): > 32.5 µM
TGI (DU-145): > 32.5 µM
growth at 10 µM (IGROV-1): 28.6%
growth at 10 µM (NCI-H522): -10.8%
GI50 (PC-3): 0.948 µM
IC50 (PC-3): 0.95 µM
TGI (PC-3): 22.5 µM
CC50 (PC-3; [15]): > 32.5 µM
growth at 10 µM (COLO 205): 94.2%
GI50 [5]: 3.31 µM
TGI [5]: > 32.5 µM
CC50 [5, 15]: > 32.5 µM
GI50 (SK-OV-3): 4.97 µM
TGI (SK-OV-3): > 32.5 µM
CC50 (SK-OV-3; [15]): > 32.5 µM
GI50 (MOLT-4 [6]): 1.92 µM
TGI (MOLT-4 [6]): > 32.5 µM
CC50 (MOLT-4 [6]; [15]): > 32.5 µM
GI50 (A549): 1.37 µM
LC50 (concentration killing 50% of starting cells) (A549): > 32.5 µM
TGI (A549): > 32.5 µM
growth at 10 µM (SF-539): 38.5%
GI50 (OVCAR-3 [7]): 1.06 µM
IC50 (OVCAR-3 [7]): 1.06 µM
TGI (OVCAR-3 [7]): 6.13 µM
CC50 (OVCAR-3 [7]; [15]): > 32.5 µM
GI50 (HCT-116 [8]): 1.39 µM
TGI (HCT-116 [8]): 8.26 µM
CC50 (HCT-116 [8]; [15]): > 32.5 µM
GI50 (NCI-H460 [9]): 1.18 µM
LC50 (NCI-H460 [9]): > 32.5 µM
TGI (NCI-H460 [9]): 29 µM
growth at 10 µM (OVCAR-3 [10]): 0.81%
GI50 (NCI-H322M): 6.41 µM
TGI (NCI-H322M): > 32.5 µM
CC50 (NCI-H322M; [15]): > 32.5 µM
growth at 10 µM (NCI-H226 [11]): 35.1%
GI50 (NCI-H226 [12]): 7.35 µM
TGI (NCI-H226 [12]): > 32.5 µM
CC50 (NCI-H226 [12]; [15]): > 32.5 µM
growth at 10 µM (CCRF-CEM): 10.6%
growth at 10 µM (LOX IMVI): 23.8%
growth at 10 µM (HCT-15): 18.2%
growth at 10 µM (MOLT-4 [13]): 12.5%
GI50 [14]: 2.14 µM
TGI [14]: > 32.5 µM
CC50 [14, 15]: > 32.5 µM
growth at 10 µM (MCF7): 10.3%
GI50 (SN12C): 2.01 µM
TGI (SN12C): > 32.5 µM
CC50 (SN12C; [15]): > 32.5 µM
